Measurements as given in patent USRE29337E, “Dicarboxylic acid soaps” (priority 1976, dated 1977).
Each block holds one compound with its values, some of them ahead of it.

Key:
[1] = Solubilities of various fatty acid soaps in water (Example 1); type: physicochemical
Protocol: Likewise, just as the type of fatty acid used influences soap properties, so does the choice of neutralizing agent. Therefore, various available inorganic alkalis were also compared.
The procedure for making the fatty acid soaps was to dissolve the inorganic alkali in the prescribed amount of water, heating to 150° F. The fatty acid was slowly added to the alkali solution and agitated for a few minutes.

[2] = potassium soaps; cited from earlier work
[3] = Viscosity vs percentage real soap, Brookfield viscometer (Example 4, FIGURE); type: physicochemical
Description: A property of the soaps which points up this solubility advantage of C21 dicarboxylic acid soap and which is also important for C21 dicarboxylic acid utility is the viscosity of the soap. […] The solubility of the various soaps may be illustrated by the viscosity of the soaps which is shown in the accompanying figure. […] The coconut fatty acid potassium soap is somewhat poorer than the C21 dicarboxylic acid soap since its viscosity goes above twenty centipoises at 30% real soap.
This example illustrates a comparison of viscosity changes with potassium solids. Liquid soaps of fatty acids must be fairly fluid for ease in dispensing and using them. Therefore, a measure of the change in viscosity of a soap solution as percentage soap present increases is an easy method for determining the concentration of soap that can be used. The curves in the accompanying FIGURE show this relationship. A Brookfield viscometer was used to determine these curves at 25° C. […] The fact that 50% oleic acid/50% coconut soap is required to obtain a viscosity of 20 cps. at 30% real soap; whereas only 25% C21 dicarboxylic acid soap/75% tall oil fatty acid is needed to reach the same viscosity level is typical of the significance of the C21 dicarboxylic acid soaps.

[4] = Fluidity and gelling of soaps (general description); type: physicochemical; conditions: potassium soap
Description: The C21 dicarboxylic acid soaps are made by neutralizing the C21 dicarboxylic acid. The neutralizing agent used is based on the solubility characteristics desired in the soap and economic considerations. The neutralizing agents contemplated include those of the following cations, sodium, potassium, lithium and ammonium. These cations may be obtained from such inorganic alkalis as caustic soda, caustic potash, and soda ash. Another cation which may be used is the ammonium cation. Organic amines may also be used, specifically amines such as triethylamine, monoethylamine, diethylamine, and alkanolamines, such as ethanolamine, triethanolamine and diethanolamine. The soaps made from the above listed neutralizing agents are all liquid at temperatures as low as 30° F.
For example, the potassium soap of oleic acid is a viscous fluid at about 18% solids and gels at 19%-20% solids. However, the potassium soap of oleic acid blended with 40% C21 dicarboxylic acid potassium soap is very fluid at 30 to 40% solids. This general characteristic of increased solubility is advantageous to all soap users for economy in shipping and handling. It also allows for cuts in production costs in applications where water is removed from the final product, since less water is added with the soap when a C21 dicarboxylic acid soap is used. […]

[5] = Amine soaps: dilution with water and gelling (Example 5); type: physicochemical; conditions: triethylamine soap; diluted slowly with water, C21 soap down to 25% solids
Protocol: The C21 dicarboxylic acid-amine soaps were also prepared using diethanolamine and monoethanol amine.

[6] = Liquid soap formulations (Example 8); type: physicochemical; conditions: for pH of formulation: liquid soap formulations, excess base kept very low; for state of liquid soap: sodium hydroxide substituted for potassium hydroxide; for compatibility of pine oil with soap formulation: pine oil at 3% addition
Protocol: The formulation used was 12% coconut fatty acids, 3% soya or tall oil fatty acid, 4.4% KOH, 1% KCL, 80% water and a perfume as desired. In all of the soaps pine oil was added as the perfume at 3% addition.
The pine oil was compatible with the C21 dicarboxylic acid soap formulation. Of course, with C21 dicarboxylic acid soap much more concentrated, fluid soaps were prepared.
To further test the advantages of C21 dicarboxylic acid soap in liquid soaps, sodium hydroxide was substituted for the potassium hydroxide in each of the formulations mentioned above. […] In all of these formulations the excess base was kept at a very low level so that the pH's were about 9 for the C21 dicarboxylic acid and coconut fatty acid systems and about 11 for the oleic acid systems.

[7] = Shampoo formulations, soap content (Example 9); type: physicochemical; conditions: 99% solids
Description: A product similar to the liquid soaps in composition is shampoo. Basically, shampoos are simply perfumed soap solutions which need to lather easily and which have a fairly high soap content. Consequently, most shampoos consist from 50% to 100% of the solids as coconut fatty acid soaps. With such a formulation a viscous potassium soap of about 35% real soap (solids) can be prepared. If the triethanolamine soap is used, a 40% real soap may be formulated. As is obvious from the earlier discussion, C21 dicarboxylic acid soap would allow for greater flexibility in the amount of soap present in the shampoo and also allow for the utility of a lower priced cation, sodium.
An area closely related to the liquid soaps is shampoos. The formulations are similar but, since profuse sudsing is desired in shampoos and since low viscosity is not critical, the real soap content is more than twice as high. To get 35% soap in a formulation, coconut fatty acids or a blend of 50% coconut-50% oleic must be used. A 40% soap shampoo can be prepared using triethanolamine rather than potassium hydroxide to form the soap. […] C21 dicarboxylic acid has a major economic advantage in this application since sodium hydroxide could be used instead of potassium hydroxide.

[8] = one-half of the carboxyl groups as carboxylate anions
Description: Since each molecule of C21 dicarboxylic acid has two carboxyl groups of varying acidity it is possible to convert the most acidic of these to the soap and the molecule becomes water-soluble leaving a free acid group on each molecule. […] A soap solution of C21 dicarboxylic acid can be prepared at any pH above 6.5, so in the case of amine soaps one can prepare the soap in such a way as to have free acid groups rather than excess amine, so there is no amine odor.
Of course, these soaps all have a pH of about 6.7 and have one free carboxylic acid group in solution.
Since the C21 dicarboxylic acid has two acid groups of different strengths, it is very easy to prepare the mono or half soap of the diacid.

[9] = type: physicochemical
Description: is often desirable when making liquid soaps, as well as toilet soaps, having tailored properties, to blend together various fatty acids to achieve desirable characteristics and lessen the undesirable ones.

[10] = cation K, 40 percent solids in water

Compound: CCCCCCCC(=O)O [Octanoic acid (C8), Octanoic acid]
Characteristics [1, 10]: Viscous solution
Characteristics ([1]; cation K, 45 percent solids in water): Gel
highest solids soaps that are still fluid at room temperature [2]: 45%

Compound: CCCCCCCC/C=C\CCCCCCCC(=O)O [potassium soap of oleic acid]
percentage real soap at which viscosity exceeds twenty centipoises ([3]; potassium soap solution, 25° C.): 16 % real soap
percent solids at which soap is a viscous fluid [4]: about 18 % solids

Compound: CCCCCCCC/C=C\CCCCCCCC(=O)O [oleic acid]
gelling on dilution with water [5]: a gel formed immediately upon the addition of water
pH of formulation [6]: about 11
fluidity of liquid soap ([6]; potassium hydroxide formulation, in place of coconut fatty acids): very viscous soap of questionable utility
state of liquid soap [6]: gels
highest solids soaps that are still fluid at room temperature [2]: 20%

Compound: CCCCCCCCCCCC(=O)O [Lauric acid (C12), Lauric acid]
Characteristics ([1]; cation K, 33 percent solids in water): Viscous solution
Characteristics ([1]; cation K, 36 percent solids in water): Gel
highest solids soaps that are still fluid at room temperature [2]: 35%

Characteristics ([1]; cation K, 35 percent solids in water): Viscous solution
Characteristics [1, 10]: Gel
Compound: CCCCCCCCC(=O)O [Nonanoic acid (G9), Nonanoic acid]

Compound: 5 carboxy-4-hexyl-2-cyclohexene-1-octanoic acid and 6 carboxy-4-hexyl-2 cyclohexene-1-octanoic acid [C21 dicarboxylic acid]
water solubility compared with soaps of conventional fatty acids [1]: water soluble at higher solids content
Characteristics ([1]; cation K, 20 percent solids in water): Solution
Characteristics ([1]; cation K, 80 percent solids in water): Viscous solution
Characteristics ([1]; cation Li, 10 percent solids in water): Solution
Characteristics ([1]; cation Na, 20 percent solids in water): Solution
Characteristics ([1]; cation Na, 65 percent solids in water): Viscous solution
pH of formulation [6]: about 9
compatibility of pine oil with soap formulation ([6]; listed as C21 dicarboxylic acid soap): compatible
compatibility of pine oil with soap formulation ([6]; listed as C21 dicarboxylic acid soaps): very compatible
precipitation ([6]; sodium hydroxide formulation, storage): no signs of precipitating after three months
state of liquid soap [6]: very fluid
viscosity of blends with oleic acid soap and coconut soap [3]: low viscosity blends
gelling [7]: does not gel
water-solubility of partly neutralized acid [8]: water-soluble

Compound: CCCCCCCCCC(=O)O [Decanoic acid (C10), Decanoic acid]
highest solids soaps that are still fluid at room temperature [2]: 40%

Compound: CCCCCCCC/C=C\CCCCCCCC(=O)O [Vegetable derived oleic acid (C18), oleic acid]
Characteristics at 25° C. [9]: Gel
